Data from ChEMBL document CHEMBL4020822, “Identification of N-{cis-3-[Methyl(7H-pyrrolo[2,3-d]pyrimidin-4-yl)amino]cyclobutyl}propane-1-sulfonamide (PF-04965842): A Selective JAK1 Clinical Candidate for the Treatment of Autoimmune Diseases” (J Med Chem, 2018).
In brackets after ≈: the same amount, converted by molar mass.

Legend:
physchem = conditions: octanol/water phosphate buffer, pH 7.4
[1] = Oral bioavailability in rat at 3 mg/kg; format: ADME, organism-based; conditions: in vivo
[2] = Aqueous solubility of the compound at pH 7.4; format: physicochemical
[3] = Apparent permeability in RRCK cells from apical to basolateral side; format: ADME, cell-based, Canis lupus familiaris, MDCKII-LE; conditions: dog, MDCK
[4] = Volume of distribution at steady state in rat at 1 mg/kg, iv or 3 mg/kg, po; format: ADME, organism-based; conditions: in vivo, read-out: Vdss
[5] = Tmax in freund's adjuvant-induced Lewis rat arthritis model blood at 15 mg/kg, po qd administered via oral gavage measured on day 7; format: ADME, organism-based

Compound | logD (physchem) | also measured
CCCNS(=O)(=O)C[C@H]1C[C@@H](N(C)c2ncnc3[nH]ccc23)C1 | 2.1 | 
CCCNS(=O)(=O)N[C@H]1C[C@@H](N(C)c2ncnc3[nH]ccc23)C1 | 2 | 
CCCCS(=O)(=O)C[C@H]1C[C@@H](N(C)c2ncnc3[nH]ccc23)C1 | 2.2 | bioavailability [1]: 119%; solubility [2]: 213 µM (≈ 71.7 µg/mL); Papp A→B [3]: 230 nm/s; Vd [4]: 0.74 L/kg
N#CC[C@H](C1CCCC1)n1cc(-c2ncnc3[nH]ccc23)cn1 [RUXOLITINIB] | 2.7 | 
C[C@@H]1CCN(C(=O)CC#N)C[C@@H]1N(C)c1ncnc2[nH]ccc12 [TOFACITINIB] | 1.1 | 
CN(c1ncnc2[nH]ccc12)[C@H]1C[C@@H](NS(=O)(=O)NC2CC2)C1 | 1.6 | 
CN(C1CC1)S(=O)(=O)N[C@H]1C[C@@H](N(C)c2ncnc3[nH]ccc23)C1 | 2.2 | 
CN(c1ncnc2[nH]ccc12)[C@H]1C[C@@H](NS(=O)(=O)CCCC#N)C1 |  | bioavailability [1]: 61.1%; solubility [2]: 259 µM (≈ 90.2 µg/mL); Papp A→B [3]: 40 nm/s; Vd [4]: 1.42 L/kg
CN(c1ncnc2[nH]ccc12)[C@H]1C[C@@H](NS(=O)(=O)Cc2ccccc2)C1 | 2.6 | 
CCS(=O)(=O)N1CC(CC#N)(n2cc(-c3ncnc4[nH]ccc34)cn2)C1 [BARICITINIB] | 1.2 | 
CCNS(=O)(=O)C[C@H]1C[C@@H](N(C)c2ncnc3[nH]ccc23)C1 | 1.5 | 
CN(c1ncnc2[nH]ccc12)[C@H]1C[C@@H](NS(=O)(=O)N2CCCCC2)C1 | 2.7 | 
CN(c1ncnc2[nH]ccc12)[C@H]1C[C@@H](CS(=O)(=O)C2CC2)C1 | 1.6 | 
CN(c1ncnc2[nH]ccc12)[C@H]1C[C@@H](CS(=O)(=O)N2CCCC2)C1 | 2.1 | 
CN(c1ncnc2[nH]ccc12)[C@H]1C[C@@H](NS(=O)(=O)CC2CCC2)C1 | 2.4 | 
CN(c1ncnc2[nH]ccc12)[C@H]1C[C@@H](CS(=O)(=O)NCC2CC2)C1 | 2.2 | 
CN(c1ncnc2[nH]ccc12)[C@H]1C[C@@H](NS(=O)(=O)NCC2CC2)C1 | 2.1 | 
CN(c1ncnc2[nH]ccc12)[C@H]1C[C@@H](CS(=O)(=O)c2ccccc2)C1 | 2.7 | 
CN(c1ncnc2[nH]ccc12)[C@H]1C[C@@H](NS(=O)(=O)NCCCC#N)C1 | 1.2 | 
CN(c1ncnc2[nH]ccc12)[C@H]1C[C@@H](NS(=O)(=O)c2ccccc2)C1 | 2.8 | 
CN(c1ncnc2[nH]ccc12)[C@H]1C[C@@H](NS(=O)(=O)CC2COC2)C1 | 1 | bioavailability [1]: 48.3%; solubility [2]: 437 µM (≈ 154 µg/mL); Papp A→B [3]: 30 nm/s; Vd [4]: 1.99 L/kg
CCCCNS(=O)(=O)C[C@H]1C[C@@H](N(C)c2ncnc3[nH]ccc23)C1 | 2.6 | 
CCNS(=O)(=O)N[C@H]1C[C@@H](N(C)c2ncnc3[nH]ccc23)C1 | 1.6 | 
CN(c1ncnc2[nH]ccc12)[C@H]1C[C@@H](NS(=O)(=O)C2CC2)C1 | 1.6 | 
CN(CCC#N)S(=O)(=O)N[C@H]1C[C@@H](N(C)c2ncnc3[nH]ccc23)C1 | 1.3 | 
CN(c1ncnc2[nH]ccc12)[C@H]1C[C@@H](NS(=O)(=O)c2ccc(F)cc2)C1 | 2.8 | 
CCCS(=O)(=O)C[C@H]1C[C@@H](N(C)c2ncnc3[nH]ccc23)C1 | 1.7 | 
CCCCN(C)S(=O)(=O)C[C@H]1C[C@@H](N(C)c2ncnc3[nH]ccc23)C1 | 3 | 
CN(CC1CC1)S(=O)(=O)C[C@H]1C[C@@H](N(C)c2ncnc3[nH]ccc23)C1 | 2.7 | 
CCS(=O)(=O)C[C@H]1C[C@@H](N(C)c2ncnc3[nH]ccc23)C1 | 1.2 | 

Second part, led by results:

logD (physchem) | Compound | also measured
2.4 | CN(c1ncnc2[nH]ccc12)[C@H]1C[C@@H](NS(=O)(=O)CCC(F)(F)F)C1 | 
1.4 | CCS(=O)(=O)N[C@H]1C[C@@H](N(C)c2ncnc3[nH]ccc23)C1 | 
1.9 | CN(c1ncnc2[nH]ccc12)[C@H]1C[C@@H](NS(=O)(=O)CC(F)(F)F)C1 | 
2 | CCCS(=O)(=O)N[C@H]1C[C@H](N(C)c2ncnc3[nH]ccc23)C1 | 
2.4 | CN(c1ncnc2[nH]ccc12)[C@H]1C[C@@H](NS(=O)(=O)CCCC(F)(F)F)C1 | 
1.8 | CN(c1ncnc2[nH]ccc12)[C@H]1C[C@@H](NS(=O)(=O)CC2CC2)C1 | 
1.2 | COCCS(=O)(=O)N[C@H]1C[C@@H](N(C)c2ncnc3[nH]ccc23)C1 | 
1.2 | CN(c1ncnc2[nH]ccc12)[C@H]1C[C@@H](NS(C)(=O)=O)C1 | 
1.9 | CCCS(=O)(=O)N[C@H]1C[C@@H](N(C)c2ncnc3[nH]ccc23)C1 [ABROCITINIB] | bioavailability [1]: 95.6%; solubility [2]: 503 µM (≈ 163 µg/mL); Papp A→B [3]: 160 nm/s; Vd [4]: 1.04 L/kg; Tmax [5]: 15 min
2.4 | CC(C)CS(=O)(=O)N[C@H]1C[C@@H](N(C)c2ncnc3[nH]ccc23)C1 | 
1.5 | COCCCS(=O)(=O)N[C@H]1C[C@@H](N(C)c2ncnc3[nH]ccc23)C1 | 
2.4 | CCCCS(=O)(=O)N[C@H]1C[C@@H](N(C)c2ncnc3[nH]ccc23)C1 | 
2.1 | CCN(C)S(=O)(=O)N[C@H]1C[C@@H](N(C)c2ncnc3[nH]ccc23)C1 | 
